According to patent publication US20250296922A1, “POLYSUBSTITUTED PYRROLIDINE DERIVATIVE, PREPARATION METHOD THEREFOR AND USE THEREOF” (SHANGHAI WENNAI THERAPEUTICS CO LTD, priority 2023, published 2025):

Target: Nav1.8 sodium channel (Homo sapiens (Human), UniProt Q9Y5Y9)
Experiment: NaV1.8 blocking activity, manual patch clamp
Format: cell-based
Conditions: CHO cell line stably expressing Nav1.8
Protocol: The NaV1.8 blocking activity was determined by using a manual patch clamp technique to detect the effect of the subject on the channel currents of stably overexpressed Nav1.8.
CHO cell line stably expressing the Nav1.8 sodium channel was used for the experiments, gene information: sodium channel, voltage-gated, type 8, alpha (SCN10A), cDNA strictly similar to GenBank accession number: NM 006514.
Cells were cultured in HAM'S/F-12 medium containing 10% foetal bovine serum and 10 μg/mL Blasticidin, 200 μg/mL Hygromycin B, and 100 μg/mL Zeocin at 37° C., 5% CO2. For expansion or maintenance cultures, cells were treated with 0.25%-Trypsin-EDTA, washed and centrifuged, and then inoculated in 6-cm cell culture dishes with 2.5×10^5lls per cell culture dish (final volume: 5 mL).
Prior to the patch clamp detection, cells were separated with 0.25%-Trypsin-EDTA and 6.5×10^3 cells were spread onto coverslips and incubated (final volume: 500 μL) in 24-well plates for 18 hours, then the test was performed.
50 mM CsCl, 10 mM NaCl, 10 mM HEPES, 60 mM CsF, 20 mM EGTA, and pH was adjusted to 7.2 with CsOH. • Instrument information is provided in Table 2 below:
Prior to Nav1.8 channel current testing, a blank control solution (DMSO) was diluted into 10 ml of extracellular fluid as the working solution. Positive controls and subjects were first diluted with different doses of DMSO depending on the final concentration before being diluted as working solution using extracellular fluid. 100 nM TTX was added to each working solution to block the TTX-S current. The working solution was sonicated for 20 min before performing the patch clamp test detection.
Patch clamp manipulation: firstly, the capillary glass tube was drawn into a recording electrode using a microelectrode puller, then the electrode filled with intracellular fluid was loaded into the microelectrode holder, and the microelectrode manipulator was manoeuvred under an inverted microscope to immerse the electrode into the extracellular fluid and record the electrode resistance (Rpip). The electrode was then slowly contacted to the cell surface and negative pressure suction was given to form a GQ2 seal. At this time, fast capacitance compensation was performed and negative pressure was continually applied to suction through the cell membrane to form a whole-cell recording pattern. Finally, slow capacitance compensation was performed and experimental parameters such as series resistance (Rs) were recorded. No leakage compensation was given.
Drug administration was initiated when the Nav1.8 current was stabilized for whole-cell recordings, and the next concentration was detected after each drug concentration had acted for approximately 5 min (or until the current was stable). Cell-lined coverslips were placed in the recording bath under an inverted microscope, and the blank control external solution as well as the working solution of the compound to be tested flowed sequentially from low to high concentrations through the recording bath by using gravitational perfusion and thus acted on the cells, and a peristaltic pump was used to exchange fluids during the recording. The current detected by each cell in the compound-free external fluid served as its own control. Each concentration was repeated independently 2-3 times. All electrophysiological experiments were performed at room temperature.
The voltage stimulation scheme for whole-cell patch-clamp recording of Nav1.8 currents was as follows: when a whole-cell seal was formed, the voltage was clamped at −120 mV. The resting state recording of sodium currents was performed by maintaining the voltage for 5s and then depolarizing it to 0 mV, and then administering a depolarizing pulse (TP1) to 0 m V for 50 ms for detecting the resting state sodium currents. For half-inactivated state recording, the voltage was first stepped at different voltages and maintained for 5s and then a depolarizing pulse was given to 0 mV to detect the Vhalf. […]

Nav1.8 sodium channel, sequence (Q9Y5Y9 whole entry): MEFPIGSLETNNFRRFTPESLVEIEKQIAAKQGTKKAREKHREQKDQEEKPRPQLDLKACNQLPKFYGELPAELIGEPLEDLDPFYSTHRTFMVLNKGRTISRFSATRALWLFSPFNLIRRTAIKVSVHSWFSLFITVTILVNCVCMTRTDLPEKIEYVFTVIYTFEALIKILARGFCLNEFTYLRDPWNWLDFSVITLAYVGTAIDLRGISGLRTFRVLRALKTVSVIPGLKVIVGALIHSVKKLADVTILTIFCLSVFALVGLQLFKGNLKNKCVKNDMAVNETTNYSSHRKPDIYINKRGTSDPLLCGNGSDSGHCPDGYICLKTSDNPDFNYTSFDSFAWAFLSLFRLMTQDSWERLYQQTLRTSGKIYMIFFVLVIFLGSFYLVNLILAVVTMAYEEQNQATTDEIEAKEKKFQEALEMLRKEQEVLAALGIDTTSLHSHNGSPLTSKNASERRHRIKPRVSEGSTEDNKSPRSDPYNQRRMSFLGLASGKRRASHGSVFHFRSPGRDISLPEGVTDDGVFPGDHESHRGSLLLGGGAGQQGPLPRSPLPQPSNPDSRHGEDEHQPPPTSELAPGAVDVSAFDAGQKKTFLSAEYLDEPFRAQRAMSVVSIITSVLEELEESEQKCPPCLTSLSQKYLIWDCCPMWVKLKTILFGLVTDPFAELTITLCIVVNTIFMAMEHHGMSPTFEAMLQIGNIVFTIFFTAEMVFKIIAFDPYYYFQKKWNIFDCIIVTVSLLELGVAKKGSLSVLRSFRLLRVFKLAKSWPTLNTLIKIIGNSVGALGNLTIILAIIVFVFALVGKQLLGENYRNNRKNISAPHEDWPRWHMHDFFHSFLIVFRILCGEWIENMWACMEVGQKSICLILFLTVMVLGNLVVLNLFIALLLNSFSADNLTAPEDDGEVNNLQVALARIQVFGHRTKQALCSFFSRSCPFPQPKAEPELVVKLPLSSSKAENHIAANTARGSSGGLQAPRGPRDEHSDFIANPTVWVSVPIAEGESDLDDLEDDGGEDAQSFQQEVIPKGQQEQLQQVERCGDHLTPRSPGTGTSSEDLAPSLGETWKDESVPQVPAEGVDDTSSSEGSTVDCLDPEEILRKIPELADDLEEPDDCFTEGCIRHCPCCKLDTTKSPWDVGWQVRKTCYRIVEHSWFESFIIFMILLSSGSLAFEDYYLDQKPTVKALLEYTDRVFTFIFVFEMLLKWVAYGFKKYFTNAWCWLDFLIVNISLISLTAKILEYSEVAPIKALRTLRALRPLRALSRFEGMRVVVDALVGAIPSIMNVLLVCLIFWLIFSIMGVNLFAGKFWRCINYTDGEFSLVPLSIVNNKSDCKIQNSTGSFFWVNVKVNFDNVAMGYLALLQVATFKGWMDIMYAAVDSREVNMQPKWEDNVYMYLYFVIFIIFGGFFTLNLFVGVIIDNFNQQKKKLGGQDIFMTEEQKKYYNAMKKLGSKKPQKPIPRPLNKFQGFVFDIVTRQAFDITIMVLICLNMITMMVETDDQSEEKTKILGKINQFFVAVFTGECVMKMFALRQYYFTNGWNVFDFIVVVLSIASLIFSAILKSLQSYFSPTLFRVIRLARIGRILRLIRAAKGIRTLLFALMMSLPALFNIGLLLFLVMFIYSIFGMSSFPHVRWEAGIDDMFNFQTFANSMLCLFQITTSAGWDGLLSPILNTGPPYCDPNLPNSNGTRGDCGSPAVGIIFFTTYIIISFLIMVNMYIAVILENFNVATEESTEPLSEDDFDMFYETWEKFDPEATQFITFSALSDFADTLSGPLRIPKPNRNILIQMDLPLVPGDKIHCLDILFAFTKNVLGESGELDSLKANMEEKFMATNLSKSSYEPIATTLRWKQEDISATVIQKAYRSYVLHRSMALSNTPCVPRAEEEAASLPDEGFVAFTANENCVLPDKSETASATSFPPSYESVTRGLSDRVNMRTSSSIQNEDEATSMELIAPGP

Compound | Blocking rate (%) @3 nM [%] | Blocking rate(%) @10 nM [%]
COc1c([C@H]2[C@H](C(=O)Nc3ccnc(S(N)(=O)=O)c3)N[C@@](C)(C(F)(F)F)[C@H]2C)ccc(F)c1F [Compound 9, (2R,3S,4S,5R)-3-(3,4-difluoro-2-methoxyphenyl)-4,5-dimethyl-aza-(2-aminosulfonylpyridin-4-yl)-5-(trifluoromethyl) pyrrolidine-2-carboxamide] | 58.06 | 84.91
4-((2R,3S,4S,5R)-3-(3,4-difluoro-2-(methoxy-d3)phenyl)-4,5-dimethyl-1-(2,2,2-trifluoroacetyl)-5-(trifluoromethyl) pyrrolidine-2-carboxamido)pyridinamide [Compound 17] | 28.89 | 77.24
[2H]C([2H])([2H])Oc1c([C@H]2[C@H](C(=O)Nc3ccc(F)c(C(=N)NO)c3)N[C@@](C)(C(F)(F)F)[C@H]2C)ccc(F)c1F [Compound 14, (2R,3S,4S,5R)-3-(3,4-difluoro-2-(methoxy-d3)phenyl)-N-(4-fluoro-3-(N-hydroxycarbamimidoyl)phenyl)-4,5-dimethyl-5-(trifluoromethyl) pyrrolidine-2-carboxamide] | 91.40 | 99.51
[2H]C([2H])([2H])Oc1c([C@H]2[C@H](C(=O)Nc3cc[n+]([O-])c(C(N)=O)c3)N[C@@](C)(C(F)(F)F)[C@H]2C)ccc(F)c1F [Compound 18, 2-carbamoyl-4-((2R,3S,4S,5R)-3-(3,4-difluoro-2-(methoxy-d3)phenyl)-4,5-dimethyl-5-(trifluoromethyl)pyrrolidine-2-carboxamido)pyridine 1-oxide] | 40.29 | 63.01
COc1c([C@H]2[C@H](C(=O)Nc3ccnc(S(C)(=O)=O)c3)N[C@@](C)(C(F)(F)F)[C@H]2C)ccc(F)c1F [Compound 12, (2R,3S,4S,5R)-3-(3,4-difluoro-2-methoxyphenyl)-4,5-dimethyl-N-(2-(methylsulfonyl)pyridin-4-yl)-5-(trifluoromethyl) pyrrolidine-2-carboxamide] | 77.43 | 88.65
C[C@H]1[C@@H](c2ccc(F)c(F)c2OC(F)F)[C@H](C(=O)Nc2ccnc(C(N)=O)c2)N[C@@]1(C)C(F)(F)F [Compound 19, 4-((2R,3S,4S,5R)-3-(2-(difluoromethoxy)-3,4-difluorophenyl)-4,5-dimethyl-5-(trifluoromethyl)pyrrolidine-2-carboxamido)pyridinamide] | 26.22 | 55.68
COc1c([C@@H]2[C@@H](C(=O)Nc3ccnc(C(N)=O)c3)N[C@](C)(C(F)(F)F)[C@@H]2C)ccc(F)c1F [Compound 2, 4-((2S,3R,4R,5S)-3-(3,4-difluoro-2-methoxyphenyl)-4,5-dimethyl-5-(trifluoromethyl)pyrrolidine-2-carboxamido)pyridine amide] | – | 9.30
C[C@H]1[C@@H](c2ccc(F)c(F)c2OC(F)F)[C@H](C(=O)Nc2ccnc(C(N)=O)c2)N[C@@]1(C)C(F)(F)F [Compound 13, 4-((2R,3S,4S,5R)-3-(2-(difluoromethoxy)-3,4-difluorophenyl)-4,5-dimethyl-5-(trifluoromethyl)pyrrolidine-2-carboxamido)pyridinamide] | 75.71 | 92.01
[2H]C([2H])([2H])Oc1c([C@H]2[C@H](C(=O)Nc3ccnc(C(=N)NO)c3)N[C@@](C)(C(F)(F)F)[C@H]2C)ccc(F)c1F [Compound 16, (2R,3S,4S,5R)-3-(3,4-difluoro-2-(methoxy-d3)phenyl)-N-(2-(N-hydroxycarbamimidoyl)pyridin-4-yl)-4,5-dimethyl-5-(trifluoromethyl) pyrrolidine-2-carboxamide] | 6.68 | 25.19
COc1c([C@H]2[C@H](C(=O)Nc3ccnc(C(N)=O)c3)N(C)[C@@](C)(C(F)(F)F)[C@H]2C)ccc(F)c1F [Compound 3, 4-((2R,3S,4S,5R)-3-(3,4-difluoro-2-methoxyphenyl)-1,4,5-trimethyl-5-(trifluoromethyl)pyrrolidine-2-carboxamido)pyridine amide] | – | 84.03
COc1c([C@H]2[C@H](C(=O)Nc3ccc([C@H](O)CO)nc3)N[C@@](C)(C(F)(F)F)[C@H]2C)ccc(F)c1F [Compound 5, (2R,3S,4S,5R)-3-(3,4-difluoro-2-methoxyphenyl)-aza-(6-((S)-1,2-dihydroxyethyl)pyridin-3-yl)-4,5-dimethyl-5-(trifluoromethyl) pyrrolidine-2-carboxamide] | 72.73 | 79.03
COc1c([C@@H]2[C@@H](C(=O)Nc3ccnc(C(N)=O)c3)N(C)[C@](C)(C(F)(F)F)[C@@H]2C)ccc(F)c1F [Compound 4, 4-((2S,3R,4R,5S)-3-(3,4-difluoro-2-methoxyphenyl)-1,4,5-trimethyl-5-(trifluoromethyl)pyrrolidine-2-carboxamido)pyridine amide] | – | 6.05
COc1c([C@H]2[C@H](C(=O)Nc3ccc([C@@H](O)CO)nc3)N[C@@](C)(C(F)(F)F)[C@H]2C)ccc(F)c1F [Compound 6, (2R,3S,4S,5R)-3-(3,4-difluoro-2-methoxyphenyl)-aza-(6-((R)-1,2-dihydroxyethyl)pyridin-3-yl)-4,5-dimethyl-5-(trifluoromethyl) pyrrolidine-2-carboxamide] | 20.06 | 45.92
[2H]C([2H])([2H])Oc1c([C@H]2[C@H](C(=O)Nc3ccnc(C(=N)NOC)c3)N[C@@](C)(C(F)(F)F)[C@H]2C)ccc(F)c1F [Compound 15, (2R,3S,4S,5R)-3-(3,4-difluoro-2-(methoxy-d3)phenyl)-N-(2-(N-methoxycarbamimidoyl)pyridin-4-yl)-4,5-dimethyl-5-(trifluoromethyl) pyrrolidine-2-carboxamide] | 35.55 | 79.44
